Reference: patent publication US20250213627A1, “RECOMBINANT MICROORGANISM-BASED METHODS AND COMPOSITIONS FOR TREATMENT OF DISEASE” (Baylor College of Medicine, priority 2021, published 2025)
Ends that are not written are not given here.

Columns and labels:
[1] = Immunohistochemistry detection of HA tag in spleen after injection; assay type: in vivo, rat; details: subcutaneous injection, spleens collected 3 hours later
Protocol: FIGS. 10A-10B. LrS235-HA secretes functionally active HA-tagged ShK-235. FIG. 10A. Representative whole-cell Kv1.3 currents measured by patch-clamp in cells stably expressing Kv1.3 before (control, top trace) and after application of ShK-235-HA (bottom trace). FIG. 10B. Healthy Lewis rats received a subcutaneous injection of either ShK-235-HA (left) or of untagged ShK-235 (right). Their spleens were collected 3 hours later and stained to detect the HA tag in brown (arrows). Scale bar: 50 μm.
Two complementary approaches to directly detect ShK-235 in joints and tissues and assess its action on T lymphocyte proliferation are used. L. reuteri LJ01 has been engineered to express HA-tagged ShK-235 (LrS235-HA), because the low immunogenicity of the peptide has made it impossible to raise antibodies against ShK-235. […] ShK-235-HA was injected to healthy rats and their spleens collected. […] HA-tagged ShK-235 is used to detect and localize ShK-235 in the joints, intestines, and secondary lymphoid organs of rats with CIA.

KCa1.1 = KCa1.1 (Homo sapiens, UniProt Q12791); details: cited from earlier work
Chain of KCa1.1 (Q12791 whole entry, species assumed): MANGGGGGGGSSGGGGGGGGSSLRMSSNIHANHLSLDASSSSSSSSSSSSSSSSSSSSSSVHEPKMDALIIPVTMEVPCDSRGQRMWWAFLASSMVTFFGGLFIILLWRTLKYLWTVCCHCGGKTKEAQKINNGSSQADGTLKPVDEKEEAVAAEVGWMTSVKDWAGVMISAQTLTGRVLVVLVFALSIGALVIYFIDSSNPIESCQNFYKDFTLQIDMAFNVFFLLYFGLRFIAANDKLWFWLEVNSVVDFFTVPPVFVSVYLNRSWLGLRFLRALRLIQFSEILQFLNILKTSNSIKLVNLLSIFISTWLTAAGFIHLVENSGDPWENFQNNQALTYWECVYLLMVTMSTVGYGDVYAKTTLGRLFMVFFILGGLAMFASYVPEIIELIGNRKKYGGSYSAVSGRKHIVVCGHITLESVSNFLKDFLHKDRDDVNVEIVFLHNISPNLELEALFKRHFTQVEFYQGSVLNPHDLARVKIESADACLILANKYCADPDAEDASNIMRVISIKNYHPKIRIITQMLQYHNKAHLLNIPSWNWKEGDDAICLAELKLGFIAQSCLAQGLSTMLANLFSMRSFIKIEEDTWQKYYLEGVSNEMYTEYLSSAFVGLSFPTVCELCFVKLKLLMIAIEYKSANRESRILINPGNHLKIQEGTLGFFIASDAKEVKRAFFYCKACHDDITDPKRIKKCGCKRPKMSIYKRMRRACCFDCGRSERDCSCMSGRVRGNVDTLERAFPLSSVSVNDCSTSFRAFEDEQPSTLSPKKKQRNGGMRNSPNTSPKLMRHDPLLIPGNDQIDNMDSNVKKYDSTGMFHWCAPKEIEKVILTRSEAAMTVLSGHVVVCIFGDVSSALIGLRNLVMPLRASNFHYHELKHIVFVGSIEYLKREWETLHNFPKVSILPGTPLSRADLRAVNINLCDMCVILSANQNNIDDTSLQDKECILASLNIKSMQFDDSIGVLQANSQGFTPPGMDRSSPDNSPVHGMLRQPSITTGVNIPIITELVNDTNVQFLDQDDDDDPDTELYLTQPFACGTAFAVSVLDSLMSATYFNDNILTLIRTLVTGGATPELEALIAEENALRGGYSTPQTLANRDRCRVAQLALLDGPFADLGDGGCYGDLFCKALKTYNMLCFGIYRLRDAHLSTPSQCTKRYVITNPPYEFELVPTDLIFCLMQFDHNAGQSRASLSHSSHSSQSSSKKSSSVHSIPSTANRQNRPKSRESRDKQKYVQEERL

Kv1.3 = Kv1.3 (Mus musculus, UniProt P16390); details: literature values; cited from earlier work
Chain of Kv1.3 (P16390 whole entry): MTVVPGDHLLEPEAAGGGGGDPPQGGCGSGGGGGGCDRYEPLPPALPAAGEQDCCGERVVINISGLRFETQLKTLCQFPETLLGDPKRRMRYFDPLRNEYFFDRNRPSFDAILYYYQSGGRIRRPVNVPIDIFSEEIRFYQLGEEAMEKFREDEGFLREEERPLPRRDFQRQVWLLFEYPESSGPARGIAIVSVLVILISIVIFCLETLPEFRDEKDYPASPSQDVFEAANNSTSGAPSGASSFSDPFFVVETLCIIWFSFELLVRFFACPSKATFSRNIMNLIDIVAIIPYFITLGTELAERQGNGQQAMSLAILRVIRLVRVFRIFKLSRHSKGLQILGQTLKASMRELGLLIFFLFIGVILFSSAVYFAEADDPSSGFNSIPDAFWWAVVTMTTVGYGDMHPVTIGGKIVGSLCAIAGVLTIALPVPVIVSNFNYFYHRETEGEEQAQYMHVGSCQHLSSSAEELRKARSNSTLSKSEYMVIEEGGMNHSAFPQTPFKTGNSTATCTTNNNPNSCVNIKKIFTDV

rat model of RA (PIA) = assay: Pristane-induced arthritis (PIA) model treated with KCa1.1 blockers; assay type: in vivo; details: paxilline 20 mg/kg i.p., IbTX 0.5 mg/kg s.c., every other day from onset
Protocol: (§1) FIGS. 12A-12E. Blocking KCa1.1 reduces the severity of an animal model of RA. FIG. 12A. Effects of vehicle (□), paxilline (▪, 20 mg/kg), and iberiotoxin (IbTX, ▪, 0.5 mg/kg) in rats with PIA. Injections were given intraperitoneally (paxilline) or subcutaneously (IbTX), every other day, starting at onset of clinical signs. N=18 rats per group. FIG. 12B. Ex vivo invasiveness of FLS isolated from healthy rats or arthritic rats, treated with vehicle or IbTX. N=5 rats per group. FIG. 12C. Representative images from the joints of arthritic rats, treated with vehicle or IbTX, and stained with Safranin O-fast green (red: cartilage & bone marrow; blue: bone). FIG. 12D. Number of urine spots after rats received a single injection of vehicle, paxilline, or IbTX and were gavaged with 1 ml drinking water. N=6 rats per group. FIG. 12E. Representative tremor measurements in rats 10 min after the injection of vehicle, paxilline, or IbTX. *p<0.05, **p<0.01, ***p<0.001.
(§2) The inventors have tested the efficacy and safety of two KCa1.1 blockers, the small molecule paxilline that blocks KCa1.1 regardless of β subunit and the peptide IbTX that blocks only some αβ combinations of KCa1.1.

rats = assay: Side effects of KCa1.1 blockers (urine spots, tremor measurements); assay type: in vivo, rat; details: single injection
Protocol: as §1, §2

RA-FLS = RA-FLS proliferation and invasion assays; assay type: cell-based, human; details: supernatants or synthetic peptide
Protocol: For proliferation assays, RA-FLS are plated into 96 well plates and incubated for 48 hrs in the presence of media supplemented with either LrIbTX or LrIbTX[R34D] supernatants, known concentrations of synthetic IbTX, or the vehicle for IbTX. [3H] thymidine is added during the last 16-18 hrs of culture and the amount of [3H] thymidine incorporated into the DNA collected with a scintillation counter as a measure of cell division.
For invasion assays, RA-FLS are seeded in the upper compartment of a Matrigel-coated transwell and induced to cross into the lower compartment by the addition of FBS. The upper compartment is supplemented with either LrIbTX or LrIbTX[R34D] supernatants, synthetic IbTX, or the vehicle. The number of cells crossing into the lower compartment are counted as a measure of invasiveness.

[2] = Detection of functional IbTX in the circulation of rats by patch-clamp; assay type: in vivo, rat; details: enteric-coated capsule
Protocol: CIA is induced in both male and female Lewis rats by their immunization twice at a week interval with porcine collagen II in emulsion with incomplete Freund's adjuvant. Rats are monitored for clinical signs of arthritis and receive an oral bolus of [1×10^7-1×10^9 CFU] LrIbTX or LrIbTX[R34D], or an enteric-coated capsule containing either 0.1 mg/kg body weight synthetic IbTX, IbTX[R34D] or glycerin on the day after the onset of clinical signs. Age- and sex-matched healthy rats are used for comparison. Blood is collected via the saphenous vein or via terminal cardiac puncture 1 hr, 6 hrs, and 24 hrs after gavage. Whole-cell patch-clamp is used to detect and quantify levels of functional IbTX in the serum of the rats.

rat CIA model of RA = assay: CIA model treated with LrIbTX; assay type: in vivo; details: daily treatment for 3 weeks from onset
Text: CIA is induced in male and female Lewis rats as described above and the rats monitored for clinical signs of arthritis. Treatment begins at onset of clinical signs, at which time rats are randomly assigned to the different treatment groups: oral LrIbTX, oral LrIbTX[R34D], injected synthetic IbTX, and injected vehicle. Treatment continues daily for 3 weeks. Rats are scored daily for CIA severity with a score of 2 given for each lightly swollen ankle or wrist, 5 for each severely swollen ankle and wrist, and 1 for each red and swollen small joint for a total of 15 per paw. At the end of the 3 weeks of treatment and scoring, rats are euthanized for collection of blood and hind limbs. Blood is used to prepare serum to detect circulating levels of IbTX. For each rat, the left hind limb is used for micro-CT to detect bone damage followed by sectioning for histology to detect cartilage damage (safranin O/Fast Green stain) and synovium inflammation (hematoxylin and eosin stain). The right hind limb is used for the isolation of FLS to assess their proliferation and invasiveness ex vivo, using the methods described above, without further treatment.

CIA = details: injected; cited from earlier work
[3] = tested on: CCR7− TEM cells and CCR7+ naïve/TCM cells; assay: [3H]-thymidine incorporation proliferation of T-cell subsets in presence of ShK-186; assay type: cell-based, human
Protocol: FIGS. 2A-2C. […] FIGS. 2A-2B. Naïve/TCM (▪) and TEM (▪) cells were separated based on CCR7 expression and activated in the presence of ShK-186, either immediately after isolation (FIG. 2A) or after an overnight pre-activation to induce the upregulation of either KV1.3 or KCa3.1 (FIG. 2B). FIG. 2C. TEM cells were activated with 10 (◯), 30 (▪), or 90 (▴) μg/ml antigen in the presence of ShK-186. In all aspects, T-cell proliferation was assessed via [3H] thymidine incorporation into the DNA of the dividing cells. Each data point represents mean±SD of triplicates.
The activation of CCR7^− TEM cells induces the upregulation of the Kv1.3 K^+ channel (FIG. 1)^8,9. In contrast, CCR7^+ naïve and central memory T (TCM) cells upregulate a different K^+ channel (KCa3.1) upon activation^8,9,35. The inventors therefore designed selective Kv1.3 blockers and assessed the sensitivity of the different T-cell subsets to Kv1.3 block. […] Without wishing to be bound by theory, this “escape” by naïve/TCM effectors may be due to up-regulation of the calcium-activated KCa3.1 channel that regulates membrane potential and Ca^2+ signaling in naïve/TCM effectors in place of Kv1.38. The significance of this finding is that in some aspects Kv1.3 blockers have an advantage over current immunotherapies because naïve and long-lived TCM cells (the main memory pool) would escape inhibition while TEM cells would be targeted.

[4] = tested on: Kv1.3 versus Kv1.1 and other ion channels; details: cited from earlier work
[5] = tested on: rat models of RA and multiple sclerosis; details: in vivo; cited from earlier work
active plaque psoriasis = details: doses as low at 30 μg/patient 3 times a week subcutaneously; cited from earlier work
[6] = tested on: rodents, non-human primates, healthy humans, and patients; details: systemic administration; Phase 1A and 1B; cited from earlier work
[7] = tested on: viral or bacterial infections in rats; details: rat, in vivo; cited from earlier work
[8] = cells activated overnight, rested and re-stimulated

ShK-235-HA: HA-tagged ShK-235 (RSCIDTIPKSRCTAFKCKHSIKYRLSFCRKTCGTCA; ends and bridges not checked; also: HA tag (position not given here))
Detection in spleen sections [1]: detect HA-ShK-235 in spleen sections

IbTX[R34D] (QFTDVDCSVSKECWSVCKDLFGVDRGKCMGKKCDCYQ; ends and bridges not checked; cysteine pairing not given here; UniProt P24663 1-37, looked up, variant R34D)
Block of KCa1.1 channels (KCa1.1; mutant IbTX): does not block KCa1.1 channels

sea anemone Stichodactyla helianthus peptide RSCIDTIPKSRCTAFQCKHSMKYRLSFCRKTCGTC (SEQ ID NO:10) [ShK]
IC50 (Kv1.3): 0.01 nM

iberiotoxin (QFTDVDCSVSKECWSVCKDLFGVDRGKCMGKKCRCYQ; not fully specified (residue 1, bridges); cysteine pairing not given here; UniProt P24663 1-37, looked up) [IbTX]
Reduction of disease severity (rat model of RA (PIA)): effective in reducing disease severity
Side effects (incontinence, tremors) (rats): No such side effects
Inhibition of RA-FLS proliferation and invasiveness (RA-FLS): inhibit
Detection of IbTX in the circulation [2]: transiently detected
CIA disease severity (rat CIA model of RA): milder disease
IC50 (KCa1.1): 2 nM
Efficacy in CIA (CIA): showed efficacy

CC(C)(O)[C@H]1O[C@H]2CC[C@@]3(C)[C@@](O)(CC[C@H]4Cc5c([nH]c6ccccc56)[C@@]43C)C2=CC1=O [paxilline]
Side effects (incontinence, tremors) (rats): induces incontinence and tremors

ShK derivative, pTyr-AEEA-RSCIDTIPKSRCTAFQCKHSMKYRLSFCRKTCGTC, amidated C-terminus (SEQ ID NO:11) [ShK-186]
Sensitivity of TEM cell proliferation to the Kv1.3 blocker [3, 8]: exquisitely sensitive
Sensitivity of naïve/TCM cell proliferation to the Kv1.3 blocker [3, 8]: resistant
Fold more effective in suppressing [3H]-thymidine incorporation by TEM cells compared with naïve/TCM cells ([3]; cells from patients with type 1 diabetes or RA, activated immediately after isolation): 10 fold
IC50 (Kv1.3): 0.07 nM
Selectivity for Kv1.3 over all other ion channels [4]: ≥ 700 fold
Selectivity for Kv1.3 versus the closely-related Kv1.1 channel [4]: 100 fold
Selectivity for Kv1.3 over other channels ([4]; comparator value): 100 fold
Efficacy [5]: demonstrated efficacy
Efficacy (active plaque psoriasis): showed efficacy
Tolerability (active plaque psoriasis): well tolerated
Safety profile [6]: excellent safety profile
Effect on clearance of infections [7]: did not prevent the clearance
